# From patent US20180325869A1, “TARGETING OF THE FORMYL-PEPTIDE RECEPTOR 2/LIPOXIN A4 RECEPTOR (FPR2/ALX) FOR TREATMENT OF HEART DISEASE” (BRISTOL-MYERS SQUIBB COMPANY, priority 2015, published 2018)
# Tests used:
# mFPR2/ALX = target: T1, mFPR2/ALX (Mus musculus, UniProt O88536); assay: cAMP assay in CHO-A12 cell line over-expressing mouse mFPR2; assay type: cell-based; conditions: CHO-A12 cells over-expressing mFPR2; read-out: potency as activator of mFPR2/ALX
# T1 construct: expressed in transfected cells; host or cells: CHO-A12
# T1 sequence (O88536 1-351): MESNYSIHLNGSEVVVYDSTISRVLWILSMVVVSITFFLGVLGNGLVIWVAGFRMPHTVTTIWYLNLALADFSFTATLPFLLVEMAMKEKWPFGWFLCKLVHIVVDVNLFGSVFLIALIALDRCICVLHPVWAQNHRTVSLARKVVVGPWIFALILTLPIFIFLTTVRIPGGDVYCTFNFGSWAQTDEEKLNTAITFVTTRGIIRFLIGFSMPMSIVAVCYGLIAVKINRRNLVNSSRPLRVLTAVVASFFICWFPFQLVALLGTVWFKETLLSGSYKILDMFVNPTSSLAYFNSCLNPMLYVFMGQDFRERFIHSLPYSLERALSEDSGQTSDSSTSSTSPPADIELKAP
# human HL60 cell line [1] = assay: Flipr calcium flux assay using dHL60 cell line; assay type: cell-based; conditions: HL-60; neutrophil like human HL60 cell line; read-out: potency for increase of cytosolic Ca2+ levels
# Protocol: Flipr assay using dHL60 non-adherent cell line. HL60 cells were diluted to 1.5×10^5 cells/ml and were grown in culture medium containing 1.3% DMSO at 37C for 5 days. On day 6 cells were counted to make sure that cells viability was approx. 95%. The 1.2×10^7 cells were spin down and washed cells once with assay buffer. The supernatant was removed and cells were re-suspended in 12 ml buffer with fluo-4 AM loading dye and label cells at 37C for 30 min. Loading buffer: HBSS (invitrogen, cat 14075), 20 mM HEPES, 0.1% FAF-BSA, 15 ul of 0.025% pluronic F127 (Invitrogen, P3000 MP), 2.5 mM probenecid, 1.9 uM Fluo-4 AM (Invitrogen, F14201). After incubation cells were washed once with reaction buffer to remove the dye and were re-suspended at 1×10^6 cells/ml. Following wash, cells were plated in 100 ul/well in Poly-D-Lysine pre-coated 96 well assay plates. Assay plates were centrifuged at 1000 rpm for 10 min and then placed in the FLIPR to perform calcium flux assay.
# human HL60 cell line [2] = assay: HL-60 cell migration assay antagonist mode (SAA-induced chemotaxis); assay type: cell-based; conditions: read-out: affinity for antagonism of chemotaxis induced by SAA
# Protocol: (§1) HL-60 cell culture and differentiation. The HL-60 cell line (ATCC, CCL-240, lot 60398411) was maintained in IMDM (Life Tech, cat 12440-053) medium supplemented with 20% fetal bovine serum, 50 U/ml penicillin, and 50 μg/ml streptomycin at 37° with 5% CO2. Cells were differentiated into the granulocyte lineage with DMSO; 2.5×10^5 cells/ml were incubated with 1.25% DMSO for 5 days.
# Neutrophil and HL-60 cell migration assay antagonist mode. After 5 day differentiation, the cells were resuspended in phenol free RPMI (Invitrogen, cat 11835) with 0.2% fatty acid free BSA at a concentration of 3×10^7 cells/ml. The dHL-60 cells (10^5 in 100 μl) were pre-incubated for 15 minutes with varying concentrations of the […] at 37° with 5% CO2. Then 0.8uM of the recombinant serum amyloid A1 peptide (rSAA1, PeproTech, Cat#300-53) was added to the bottom chamber of each HTS transwell-96well plate (Coming#3387). Migration was induced by placing […] and the dHL60 cells mixture in the top chamber of the transwell plate. Cells were allowed to migrate for 120 min across the 5micron filters at 37° with 5% CO2. Following migration, neutrophils or dHL-60 cells remaining in the transwell lower chamber (migrated fraction) were quantitated using the cell-titer-glo luminescence cell viability assay (Promega, G7571).
# human HL60 cell line [3] = assay: HL-60 cell migration assay agonist mode; assay type: cell-based; conditions: read-out: potency for stimulation of chemotaxis by itself
# Protocol: as §1
# Neutrophil and HL-60 cell migration assay agonist mode. After 5 day differentiation, cells were resuspended in phenol free RPMI (Invitrogen, cat 11835) with 0.2% fatty acid free BSA at a concentration of 3×10^7 cells/ml. The dHL-60 cells (10^5 in 100 μl) were added to the upper chamber of each HTS transwell-96well plate (Corning#3387). Migration was induced by placing chemoattractant in the bottom chamber and the dHL60 cells in the top chamber of the transwell plate. Cells were allowed to migrate for 120 min across the 5 micron filters at 37° with 5% CO2. Following migration, neutrophils or dHL-60 cells remaining in the transwell lower chamber (migrated fraction) were quantitated using the cell-titer-glo luminescence cell viability assay (Promega, G7571).
# mice [4] = assay: Permanent coronary artery occlusion myocardial infarction model; assay type: in vivo
# Protocol: Animal models. Permanent coronary artery occlusion was carried out in mice using a ligature placed around the left anterior descending artery to induce myocardial infarction. […] Mice subjected to thoracotomy but not infarcted were included as surgical “sham” controls. Mice were evaluated 28 days following myocardial infarction to assess structure/function relationships. Hearts were removed from mice to evaluate the passive mechanics of the myocardium. To do this, ex vivo pressure-volume relationships of the left ventricle were measured via inflation and deflation cycles of a balloon placed within the left ventricle of the excised heart. Two-dimensional strains of the myocardial scar were also measured to determine the compliance of infarcted tissue. Hearts were also processed histologically to measure left ventricular dimensions, infarct areas and infarct collagen composition.
# mFPR3 = target: T2, mFPR3 (Mus musculus, UniProt O08790); assay: cAMP assay in CHO-A12 cell line over-expressing mouse mFPR3; assay type: cell-based; conditions: CHO-A12 cells over-expressing mFPR3; read-out: activity against mFPR3
# T2 construct: expressed in transfected cells; host or cells: CHO-A12
# T2 sequence (O08790 1-351): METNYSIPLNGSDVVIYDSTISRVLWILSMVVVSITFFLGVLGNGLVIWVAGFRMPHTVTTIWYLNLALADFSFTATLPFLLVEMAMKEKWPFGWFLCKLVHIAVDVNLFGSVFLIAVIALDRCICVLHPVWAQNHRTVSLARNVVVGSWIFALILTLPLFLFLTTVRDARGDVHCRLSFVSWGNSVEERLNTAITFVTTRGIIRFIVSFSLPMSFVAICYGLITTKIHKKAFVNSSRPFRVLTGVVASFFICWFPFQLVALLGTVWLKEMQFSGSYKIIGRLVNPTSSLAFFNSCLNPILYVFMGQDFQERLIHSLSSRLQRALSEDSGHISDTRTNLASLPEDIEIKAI
# mice [5] = assay: Angiotensin II challenge myocardial fibrosis model; assay type: in vivo, mouse; conditions: for decrease of left ventricular hydroxyproline content vs vehicle: p<0.05
# Protocol: To assess myocardial fibrosis, mice were challenged with angiotensin II to stimulate cardiac hypertrophy and left ventricular collagen deposition. Mice were administered angiotensin II using subcutaneously implanted osmotic mini-pumps (˜2 mg/kg/day) A separate group of mice were implanted with subcutaneous pumps containing saline (surgical “sham” group); these mice served as control for pump implantation surgery. […] Treatments lasted for 2-3 weeks, depending on the exact study design. At the end of treatment phase, hearts were removed from animals and evaluated for collagen levels/fibrosis using a standard colorimetric assay for myocardial hydroxyproline or by cross-sectional histology of the hearts.
# Myocardial fibrosis was evaluated in the mouse with continuous angiotensin II challenge administered by subcutaneous osmotic mini-pump.
# [6] = tested on: mouse bio-gel elicited peritoneal macrophages; assay: Enhancement of phagocytosis in bio-gel elicited peritoneal macrophages; assay type: cell-based
# Protocol: Enhancement of phagocytosis. Macrophages were elicited to the peritoneum of five C57BL6 mice by peritoneal injection of 1 ml of 1% Biogel in PBS (−/−) 4 days prior to harvest. Peritoneal exudates are harvested, combined and then filtered to remove Biogel beads. First, through a 70 um cell strainer followed by successively filtering through two 40 um cell strainers. The exudate is diluted with 1× PBS (−/−) to 50 ml and centrifuged at 300× g for 10 minutes at 4° C. The cell pellet is gently resuspended in 20-30 ml 1× PBS(+/+) and cells are counted using the Nexelcom Cellometer counter. Cell concentration is adjusted to 1,250,000 cells/ml in 1× PBS (+/+). 100 ul (125 k) cells are placed into each well of a 96-well Costar 3904 plate. The plates are centrifuged at 150× g for 30 seconds to promote adherence. […] Fluorescence signal from non-ingested Zymosan particles is quenched with 150 ul ice-cold 1:15 diluted Trypan Blue solution for 2 minutes and then aspirated to remove. Lastly, the plate is read on a SpectraMAX Gemini EM fluorescence plate reader in 150 ul of 1:50 diluted Trypan Blue. Plate Reader Settings=Bottom Read: Excitation 493 nm: Emission 525 nm: Cutoff 515 nm: Automix Off: Calibrate On: PMT=Auto: Column Priority: Reads/Well=20.
# mFPR1 receptor = target: T3, mFPR1 receptor (Mus musculus, UniProt P33766); assay: Functional assay with mFPR1 receptor; assay type: cell-based; conditions: read-out: function affinity with mFPR1 receptor
# T3 sequence (P33766 1-364): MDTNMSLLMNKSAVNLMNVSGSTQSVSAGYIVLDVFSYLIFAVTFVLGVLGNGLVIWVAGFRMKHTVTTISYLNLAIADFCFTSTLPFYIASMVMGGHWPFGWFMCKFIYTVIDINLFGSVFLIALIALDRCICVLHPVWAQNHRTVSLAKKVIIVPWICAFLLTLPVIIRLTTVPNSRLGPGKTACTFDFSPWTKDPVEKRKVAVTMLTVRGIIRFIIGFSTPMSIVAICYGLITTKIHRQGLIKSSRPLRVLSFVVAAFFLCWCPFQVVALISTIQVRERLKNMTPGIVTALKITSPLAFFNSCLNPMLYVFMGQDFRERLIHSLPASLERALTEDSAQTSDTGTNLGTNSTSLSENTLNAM
# [7] = mice, oral 1 and 10 mg/kg QD, stated for both models
smiles,measurement,setting,value
"CC(C)c1c(NC(=O)Nc2ccc(Cl)cc2)c(=O)n(-c2ccccc2)n1C [Compound 1, 1-(4-chlorophenyl)-3-(5-isopropyl-1-methyl-3-oxo-2-phenyl-2,3-dihydro-1H-pyrazol-4-yl)urea]",EC50,mFPR2/ALX,0.02 µM
same,EC50,human HL60 cell line [1],0.05 µM
same,IC50,human HL60 cell line [2],0.189 µM
same,EC50,human HL60 cell line [3],0.078 µM
same,reduction of infarct area (as % of left ventricle area) vs vehicle,"mice [4]; 1 mg/kg, histology, p<0.05",44%
same,reduction of left ventricular chamber area vs vehicle (histology),"mice [4]; 1 mg/kg, p<0.05",28%
same,reduction of infarct area (as % of left ventricle area) vs vehicle,"mice [4]; 10 mg/kg, histology, p<0.05",49%
same,reduction of left ventricular chamber area vs vehicle (histology),"mice [4]; 10 mg/kg, p<0.05",30%
same,ex vivo left ventricle pressure-volume curves,"mice [4]; 28 days post MI, 1 and 10 mg/kg QD oral",left shifted in a dose-dependent manner
same,pressure-volume slopes (myocardial stiffness),"mice [4]; 28 days post MI, ex vivo",greater than vehicle and similar to normal sham control mice
same,two-dimensional scar strains,"mice [4]; 28 days post MI, ex vivo",reduced circumferential and longitudinal strains relative to vehicle treatment
same,overall mortality,mice [4]; high dose,decrease in overall mortality
same,increased anterior left ventricular wall thickness at site of infarction vs vehicle,"mice [4]; histology, p<0.05",45-65%
same,tolerability throughout the in-life phase,mice [4]; [7],well tolerated
same,untoward effects on the physiology of the mice,mice [4]; [7],no untoward effects
same,EC50,mFPR3,> 10 µM
same,decrease of left ventricular hydroxyproline content vs vehicle,"mice [5]; 1 mg/kg, pre-treatment 24 h before angiotensin II, 2 weeks",83%
same,decrease of left ventricular hydroxyproline content vs vehicle,"mice [5]; 10 mg/kg, pre-treatment 24 h before angiotensin II, 2 weeks",75%
same,interstitial collagen by histology of the left ventricle,"mice [5]; pre-treatment 24 h before angiotensin II, 2 weeks",Comparable reductions
same,hydroxyproline content and interstitial collagen levels by histology,mice [5]; treatment given at the time of angiotensin II challenge,comparable reductions
same,reduction of interstitial fibrosis in the left ventricle vs vehicle,"mice [5]; treatment started after 3 days of angiotensin II, 2.5 weeks, histology, p<0.001",~74%
same,enhancement of phagocytosis of fluorescently labeled zymosan vs untreated control cells,"[6]; compound in picomolar range, depending on experimental conditions",250 to 60%
same,enhancement of phagocytosis in knockout macrophages,[6]; macrophages from single mFPR2 and mFPR3 or double mFPR2/FPR3 knockout mice,no such enhancement
same,EC50,mFPR1 receptor,~0.05 µM
